Source: US20220128542A1, “TREATMENT EFFICIENCY EVALUATION” (TX MEDIC AB, priority 2019, published 2022)
Read-outs that look alike come from different tables or passages of the source.

System: brain of rats subjected to severe traumatic brain injury (sTBI)
[1] = 1 mg/kg, 2 days post-TBI, of 221 genes
[2] = 1 mg/kg, 7 days post-TBI, of 2741 genes
[3] = 5 mg/kg, 2 days post-TBI, of 221 genes
[4] = 5 mg/kg, 7 days post-TBI, of 2741 genes
[5] = 15 mg/kg, 2 days post-TBI, of 221 genes
[6] = 15 mg/kg, 7 days post-TBI, of 2741 genes
[7] = 3 repeated doses of 15 mg/kg, 7 days post-TBI, of 2741 genes
[8] = DS 1 mg/kg, day 7 following TBI, relative to TBI model
[9] = DS 5 mg/kg, day 7 following TBI, relative to TBI model
[10] = DS 15 mg/kg, day 7 following TBI, relative to TBI model

Protocol: As a starting point, a list and expression levels of molecules differentially regulated by dextran sulfate relative to a TBI model for the three different doses (1 mg/kg, 5 mg/kg and 15 mg/kg) of dextran sulfate at day 7 following TBI were established.
Male Wistar rats of 300-350 g body weight were fed with standard laboratory diet and water ad libitum in a controlled environment. As the anesthetic mixture, the animals received 35 mg/kg b.w. ketamine and 0.25 mg/kg body weight midazolam by i.p. injection. Severe traumatic brain injury (sTBI) was induced by dropping a 450 g weight from 2 m height on to the rat head that had been protected by a metal disk previously fixed on the skull, according to the “weight drop” impact acceleration model (Marmarou et al., J Neurosurg. 1994; 80: 291-300). […] At the end of each period of treatment, rats were anesthetized again and then immediately sacrificed.
LMW-DS (Tikomed AB) was provided at a stock concentration of 20 mg/ml and was kept in a temperature-monitored refrigerator at 4° C. LMW-DS aliquots were diluted to the appropriate dosing concentration in sterile saline prior to delivery of a single subcutaneous injection.
Three doses of LMW-DS were administered subcutaneously 30 minutes post-TBI. The animals were sacrificed at 2 days post-TBI. The animals were divided into the following subgroups:
Three doses of LMW-DS were administered subcutaneously 30 minutes post-TBI. The animals were sacrificed at 7 days post-TBI. The animals were divided into the following subgroups:
An in vivo craniectomy was performed on all animals during anesthesia. After carefully removing the rat's skull, the brain was exposed and removed with a surgical spatula and quickly dropped in RNALater and preserved at 4° C. for further processing.
The arrays used were the Agilent Rat expression arrays.
Statistical analysis was performed to quantitate the effect of sTBI on the brain in this model. The follow-on analyses looked at the effects of LMW-DS in this model using different iterations and algorithms. Statistical analysis was carried out using the Metaboanalyst software package. Gene expression changes of 10% with a p<0.05 were regarded as significant.

sodium salt of dextran sulfate [LMW-DS]
genes with altered TBI-specific expression (1 mg/kg within 30 min after injury, 2 days of sTBI): 372 genes
genes with altered TBI-specific expression (1 mg/kg within 30 min after injury, 7 days of sTBI): 3602 genes
genes differing from healthy controls (1 mg/kg, 2 days after sTBI): 209 genes
TBI-deregulated genes remaining deregulated relative to healthy controls [1]: 22 genes
share of TBI-deregulated genes remaining deregulated [1]: 10%
genes differing from healthy controls (1 mg/kg, 7 days after sTBI): 282 genes
TBI-deregulated genes remaining deregulated relative to healthy controls [2]: 124 genes
share of TBI-deregulated genes remaining deregulated [2]: 4.5%
genes with altered TBI-specific expression (5 mg/kg within 30 min after TBI, 2 days of sTBI): 702 genes
genes with altered TBI-specific expression (5 mg/kg within 30 min after TBI, 7 days of sTBI): 3852 genes
genes differing from healthy controls (5 mg/kg, 2 days after sTBI): 258 genes
TBI-deregulated genes remaining deregulated relative to healthy controls [3]: 51 genes
share of TBI-deregulated genes remaining deregulated [3]: 23%
genes differing from healthy controls (5 mg/kg, 7 days after sTBI): 398 genes
TBI-deregulated genes remaining deregulated relative to healthy controls [4]: 169 genes
share of TBI-deregulated genes remaining deregulated [4]: 6.1%
genes with altered TBI-specific expression (15 mg/kg within 30 min after TBI, 2 days of sTBI): 247 genes
genes with altered TBI-specific expression (15 mg/kg within 30 min after TBI, 7 days of sTBI): 3901 genes
genes differing from healthy controls (15 mg/kg, 2 days after sTBI): 47 genes
TBI-deregulated genes remaining deregulated relative to healthy controls [5]: 19 genes
share of TBI-deregulated genes remaining deregulated [5]: 8.5%
genes differing from healthy controls (15 mg/kg, 7 days after sTBI): 158 genes
TBI-deregulated genes remaining deregulated relative to healthy controls [6]: 85 genes
share of TBI-deregulated genes remaining deregulated [6]: 3.1%
genes differing from healthy controls (3 repeated doses of 15 mg/kg, 7 days after sTBI): 234 genes
TBI-deregulated genes remaining deregulated relative to healthy controls [7]: 116 genes
share of TBI-deregulated genes remaining deregulated [7]: 4.25%
AFP fold change (FC) [8]: −1.439
ATP2A3 fold change (FC) [8]: −1.284
ATP8A1 fold change (FC) [8]: 1.280
BDNF fold change (FC) [8]: 1.635
CRH fold change (FC) [8]: 1.253
FGF1 fold change (FC) [8]: −1.366
HBEGF fold change (FC) [8]: 1.235
IL-17B fold change (FC) [8]: 1.863
KITLG fold change (FC) [8]: −1.251
LDLR fold change (FC) [8]: 1.364
NOG fold change (FC) [8]: 1.304
PF4 fold change (FC) [8]: −1.453
SLC1A4 fold change (FC) [8]: 1.498
SLC7A11 fold change (FC) [8]: 1.490
SLC16A7 fold change (FC) [8]: 1.493
SLC29A1 fold change (FC) [8]: −1.370
SLC40A1 fold change (FC) [8]: −1.345
TNFSF15 fold change (FC) [8]: 3.878
TSLP fold change (FC) [8]: 1.389
TTR fold change (FC) [8]: −2.531
VAV3 fold change (FC) [8]: −1.505
AFP fold change (FC) [9]: −1.280
ATP2A3 fold change (FC) [9]: −1.205
ATP8A1 fold change (FC) [9]: 1.223
BDNF fold change (FC) [9]: 1.708
CRH fold change (FC) [9]: 1.316
FGF1 fold change (FC) [9]: −1.382
HBEGF fold change (FC) [9]: 1.274
IL-17B fold change (FC) [9]: 1.765
KITLG fold change (FC) [9]: −1.274
LDLR fold change (FC) [9]: 1.291
NOG fold change (FC) [9]: 1.305
PF4 fold change (FC) [9]: −1.331
SLC1A4 fold change (FC) [9]: 1.531
SLC4A1 fold change (FC) [9]: −1.442
SLC7A11 fold change (FC) [9]: 1.469
SLC16A7 fold change (FC) [9]: 1.441
SLC29A1 fold change (FC) [9]: −1.377
SLC40A1 fold change (FC) [9]: −1.338
TNFSF15 fold change (FC) [9]: 4.302
TSLP fold change (FC) [9]: 1.446
TTR fold change (FC) [9]: −1.915
VAV3 fold change (FC) [9]: −1.418
AFP fold change (FC) [10]: −1.208
ATP2A3 fold change (FC) [10]: −1.216
ATP8A1 fold change (FC) [10]: 1.212
BDNF fold change (FC) [10]: 1.557
CRH fold change (FC) [10]: 1.293
FGF1 fold change (FC) [10]: −1.213
GOSR1 fold change (FC) [10]: 1.233
HBEGF fold change (FC) [10]: 1.250
IL36RN fold change (FC) [10]: 1.284
IL-17B fold change (FC) [10]: 1.729
KITLG fold change (FC) [10]: −1.261
LDLR fold change (FC) [10]: 1.212
NOG fold change (FC) [10]: 1.281
PF4 fold change (FC) [10]: −1.244
SLC1A4 fold change (FC) [10]: 1.518
SLC4A1 fold change (FC) [10]: −1.213
SLC7A11 fold change (FC) [10]: 1.477
SLC16A7 fold change (FC) [10]: 1.408
SLC29A1 fold change (FC) [10]: −1.316
SLC40A1 fold change (FC) [10]: −1.348
TNFSF15 fold change (FC) [10]: 3.939
TSLP fold change (FC) [10]: 1.322
TTR fold change (FC) [10]: −2.179
VAV3 fold change (FC) [10]: −1.318
